Assay [1] in a line: viability of uninfected HEp-2 cells – cell-based, HTS, cytotoxicity control for RSV inhibitor project, dose response (AID 2410). The class given is functional. The note with it: human respiratory syncytial virus.
Another assay addresses Cytochrome P450 3A4 (Homo sapiens, UniProt P08684).
A further assay concerns the target Protein Wnt-3a (Mus musculus, UniProt P27467). The assay can be described thus: antagonism of Wnt3a pathway luciferase reporter – Wnt-LIGHT cells, luminescence, selectivity assay for Gli-SUFU antagonist project, dose response (AID 651570).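 Note: Wnt-LIGHT reporter cells stimulated with conditioned medium from Wnt3a-producing cells.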 Type of assay: functional. The note with it: read-out: IC50_Mean.
The target of assay [2] is 72 kDa type IV collagenase (Homo sapiens, UniProt P08253). The assay can be described thus: Dose Response validation of uHTS RPN11 inhibitor hits using a MMP-2 Fluorescence assay. The class given is functional.
72 kDa type IV collagenase, sequence (P08253 whole entry): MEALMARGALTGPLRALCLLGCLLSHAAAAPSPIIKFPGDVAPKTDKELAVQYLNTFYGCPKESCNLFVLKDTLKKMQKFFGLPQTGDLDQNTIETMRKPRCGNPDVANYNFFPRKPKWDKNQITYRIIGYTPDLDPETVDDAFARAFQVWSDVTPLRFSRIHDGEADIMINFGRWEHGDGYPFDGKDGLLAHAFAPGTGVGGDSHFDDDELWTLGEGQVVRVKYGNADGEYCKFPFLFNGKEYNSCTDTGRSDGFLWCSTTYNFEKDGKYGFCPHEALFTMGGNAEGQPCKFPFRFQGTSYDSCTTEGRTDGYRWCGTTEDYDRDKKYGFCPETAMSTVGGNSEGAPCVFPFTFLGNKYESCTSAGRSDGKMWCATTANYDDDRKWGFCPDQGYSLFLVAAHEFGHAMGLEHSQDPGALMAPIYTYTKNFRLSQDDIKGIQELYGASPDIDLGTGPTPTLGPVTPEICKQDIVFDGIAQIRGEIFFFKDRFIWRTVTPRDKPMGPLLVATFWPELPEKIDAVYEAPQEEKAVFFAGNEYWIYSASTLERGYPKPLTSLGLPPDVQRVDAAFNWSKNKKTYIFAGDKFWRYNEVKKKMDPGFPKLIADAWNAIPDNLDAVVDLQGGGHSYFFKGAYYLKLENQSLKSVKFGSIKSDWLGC
For assay [3], the target named is 26S proteasome non-ATPase regulatory subunit 14 (Homo sapiens, UniProt O00487). The assay can be described thus: inhibition of proteasome subunit RPN11 – biochemical, fluorescence polarization, uHTS hits, confirmation (AID 602368). Type of assay: functional. (In fluorescence polarisation assays a small probe gives low polarisation when free and higher when bound to something large.)
26S proteasome non-ATPase regulatory subunit 14, sequence (O00487 whole entry): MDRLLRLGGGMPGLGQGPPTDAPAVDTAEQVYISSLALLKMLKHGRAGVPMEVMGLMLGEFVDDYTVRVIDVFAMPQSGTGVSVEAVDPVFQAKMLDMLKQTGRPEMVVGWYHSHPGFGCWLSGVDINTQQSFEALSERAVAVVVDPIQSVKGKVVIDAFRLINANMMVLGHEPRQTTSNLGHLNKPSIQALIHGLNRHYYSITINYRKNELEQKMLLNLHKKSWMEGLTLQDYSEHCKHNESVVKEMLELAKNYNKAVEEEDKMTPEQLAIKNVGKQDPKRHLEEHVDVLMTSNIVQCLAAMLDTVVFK

Another assay concerns the target Prothrombin (Bos taurus, UniProt P00735). As to the kind of experiment: thrombin protease inhibitors – biochemical, fluorescence polarization, uHTS hits, dose response (AID 602369). The class given is functional.
The nature of assay [4]: loss of viability in HepG2 cells – cell-based, CellTiter-Glo, cherry-picked, cytotoxicity control for Shn3 inhibitor project, dose response (AID 624134). Type of assay: functional.
A short description of assay [5]: Luminescence Cell-Based Dose Confirmation HTS to Identify Inhibitors of Platelet Dense Granule Release. [Related pubchem assays: 1663 (Primary HTS), 1678 (Summary of Project)]. Type of assay: functional.
A further assay relates to INS1. The assay can be described thus: INS-1E survival protection against cytokine death – cell-based, luminescence, retest, dose response (AID 449756).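 Note: cell death triggered by IL-1 beta plus TNF-alpha plus IFN-gamma mixture; protective hits raise ATP signal compared with cytokine alone wells.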 To be noted: Rattus norvegicus. The class given is functional.
A short description of assay [6]: reduction of Shn3 3'UTR-driven luciferase in osteoblasts – cell-based, Clone20 osteoblasts, firefly luciferase, cherry-picked, dose response (AID 624132).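 Note: firefly luciferase luminescence from reporter carrying the Shn3 3'UTR in osteoblasts.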 Type of assay: functional.
For assay [7], the target named is Luciferin 4-monooxygenase (Photinus pyralis, UniProt P08659). As to the kind of experiment: inhibition of purified Photinus pyralis luciferase – biochemical, luminescence, dose response (AID 1891).
Luciferin 4-monooxygenase, sequence (P08659 whole entry): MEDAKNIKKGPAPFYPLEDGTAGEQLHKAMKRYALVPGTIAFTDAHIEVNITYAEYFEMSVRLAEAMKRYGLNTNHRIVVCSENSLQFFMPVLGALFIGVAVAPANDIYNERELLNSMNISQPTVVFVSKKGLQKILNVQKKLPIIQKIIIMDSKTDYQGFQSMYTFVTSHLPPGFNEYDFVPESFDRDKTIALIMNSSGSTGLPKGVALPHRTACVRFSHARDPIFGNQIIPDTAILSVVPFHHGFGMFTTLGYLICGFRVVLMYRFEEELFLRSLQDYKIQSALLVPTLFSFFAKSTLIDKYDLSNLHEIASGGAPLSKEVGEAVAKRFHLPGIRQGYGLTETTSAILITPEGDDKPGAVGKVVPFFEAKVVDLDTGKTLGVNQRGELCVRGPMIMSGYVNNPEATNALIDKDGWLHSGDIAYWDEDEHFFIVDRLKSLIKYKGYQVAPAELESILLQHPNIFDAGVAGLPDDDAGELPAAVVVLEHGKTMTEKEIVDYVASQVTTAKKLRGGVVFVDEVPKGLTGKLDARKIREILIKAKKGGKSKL
Assay [8] can be described thus: non-specific 3'UTR reporter inhibition in Clone20-Shn3RL – cell-based, Renilla luciferase, cherry-picked, counter-screen for Shn3 inhibitor project, dose response (AID 624133). Type of assay: functional.
For a further assay, the system named is H9c2. The assay can be described thus: cells. Type of assay: functional, cell-based. The note with it: Rattus norvegicus, H9c2, Myocardium.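 Note: confirmatory concentration-response retest of ultra-high-throughput screening hits for modulation of myocardial damage; cell death induced by hydrogen peroxide oxidative stress; compound pretreatment for 60 min then peroxide exposure for 2 h; potency is for protecting the cells against peroxide damage rather than for killing them.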
Assay [9] in a line: HEK-293T cell viability reduction – luminescence, B-cell screen hits, cytotoxicity control for BCR NF-kB inhibitor project, dose response (AID 489021).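 Note: HEK-293T cells carrying an NF-kB luciferase reporter; cells exposed to compound for about 14 hours before viability readout.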 The class given is functional, cell-based.
Assay [10] has as its target T1, Mitochondrial peptide methionine sulfoxide reductase (Bos taurus, UniProt P54149).
T1 sequence (P54149 whole entry): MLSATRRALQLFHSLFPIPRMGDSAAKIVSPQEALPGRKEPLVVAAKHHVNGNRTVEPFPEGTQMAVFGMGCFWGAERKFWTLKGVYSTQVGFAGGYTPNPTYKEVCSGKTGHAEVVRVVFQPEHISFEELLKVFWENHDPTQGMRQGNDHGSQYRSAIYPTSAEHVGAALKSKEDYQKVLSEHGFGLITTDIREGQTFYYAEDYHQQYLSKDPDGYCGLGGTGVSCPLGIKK
The assay can be described thus: Absorbance-based biochemical high throughput dose response assay for activators of Methionine sulfoxide reductase A (MsrA). The class given is functional.

A short description of assay [11]: Luminescence Cell-Based Dose Response HTS to Identify Inhibitors of 5'UTR Stem-Loop Driven Prion Protein mRNA Translation in H4 Neuroglioblastoma Cells. [Related pubchem assays: 1827 (Project Summary), 1813 (Primary HTS)]. Type of assay: functional.
In assay [12] the target is T2, Low molecular weight phosphotyrosine protein phosphatase (Homo sapiens, UniProt P24666).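 Note: Dose-response confirmation assay measuring inhibition of LMPTP enzyme activity by fluorescence intensity read-out.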
T2 sequence (P24666 whole entry): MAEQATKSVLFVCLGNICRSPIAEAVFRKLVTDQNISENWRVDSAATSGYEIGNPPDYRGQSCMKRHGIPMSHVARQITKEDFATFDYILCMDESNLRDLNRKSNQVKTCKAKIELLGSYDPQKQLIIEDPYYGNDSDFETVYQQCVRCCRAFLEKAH
Type of assay: functional. The note with it: read-out: IC50_Mean.

Assay [13] in a line: luciferase reporter signal suppression in cells – H4 neuroglioma cells, luminescence, dose response (AID 1990). The class given is functional, cell-based. For orientation: Reporter assays use an easily measured gene product as a stand-in for the process of interest.
The nature of assay [14]: alpha-synuclein stem-loop luciferase translation blockers – H4 neuroglioma cells, luminescence, confirmation (AID 1988). The class given is functional, cell-based.
Another assay has as its target T3, Protein RecA (Mycobacterium tuberculosis, UniProt P9WHJ3).
T3 sequence (P9WHJ3 whole entry): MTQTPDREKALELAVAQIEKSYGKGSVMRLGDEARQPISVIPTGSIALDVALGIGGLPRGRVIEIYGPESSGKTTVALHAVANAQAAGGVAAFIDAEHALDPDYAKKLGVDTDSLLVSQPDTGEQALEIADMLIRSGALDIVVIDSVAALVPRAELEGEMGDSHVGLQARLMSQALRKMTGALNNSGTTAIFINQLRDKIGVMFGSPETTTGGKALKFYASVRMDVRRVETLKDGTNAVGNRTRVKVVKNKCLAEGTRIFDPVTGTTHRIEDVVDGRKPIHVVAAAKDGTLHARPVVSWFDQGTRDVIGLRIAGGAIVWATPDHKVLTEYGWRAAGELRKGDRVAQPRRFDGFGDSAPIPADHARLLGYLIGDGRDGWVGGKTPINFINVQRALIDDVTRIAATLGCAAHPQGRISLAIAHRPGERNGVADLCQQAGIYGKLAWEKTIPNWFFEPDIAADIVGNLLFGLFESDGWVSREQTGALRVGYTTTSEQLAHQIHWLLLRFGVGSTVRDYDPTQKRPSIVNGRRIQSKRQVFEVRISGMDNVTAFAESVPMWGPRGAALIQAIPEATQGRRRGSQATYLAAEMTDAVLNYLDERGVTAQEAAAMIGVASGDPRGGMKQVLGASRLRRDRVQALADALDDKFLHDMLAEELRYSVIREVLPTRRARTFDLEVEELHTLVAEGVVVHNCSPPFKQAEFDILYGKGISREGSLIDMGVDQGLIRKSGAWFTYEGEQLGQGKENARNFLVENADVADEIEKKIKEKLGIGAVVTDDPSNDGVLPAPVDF
The assay can be described thus: Fluorescence Cell-Free Homogeneous Dose Retest to Identify Inhibitors of RecA-Intein Splicing Activity. [Related pubchem assays (depositor defined):AID2097, AID2223, AID489010, AID492950]. The class given is functional.

For assay [15], the target named is T4, Replicative DNA helicase DnaB (Mycobacterium tuberculosis, UniProt P9WMR3).
T4 sequence (P9WMR3 whole entry): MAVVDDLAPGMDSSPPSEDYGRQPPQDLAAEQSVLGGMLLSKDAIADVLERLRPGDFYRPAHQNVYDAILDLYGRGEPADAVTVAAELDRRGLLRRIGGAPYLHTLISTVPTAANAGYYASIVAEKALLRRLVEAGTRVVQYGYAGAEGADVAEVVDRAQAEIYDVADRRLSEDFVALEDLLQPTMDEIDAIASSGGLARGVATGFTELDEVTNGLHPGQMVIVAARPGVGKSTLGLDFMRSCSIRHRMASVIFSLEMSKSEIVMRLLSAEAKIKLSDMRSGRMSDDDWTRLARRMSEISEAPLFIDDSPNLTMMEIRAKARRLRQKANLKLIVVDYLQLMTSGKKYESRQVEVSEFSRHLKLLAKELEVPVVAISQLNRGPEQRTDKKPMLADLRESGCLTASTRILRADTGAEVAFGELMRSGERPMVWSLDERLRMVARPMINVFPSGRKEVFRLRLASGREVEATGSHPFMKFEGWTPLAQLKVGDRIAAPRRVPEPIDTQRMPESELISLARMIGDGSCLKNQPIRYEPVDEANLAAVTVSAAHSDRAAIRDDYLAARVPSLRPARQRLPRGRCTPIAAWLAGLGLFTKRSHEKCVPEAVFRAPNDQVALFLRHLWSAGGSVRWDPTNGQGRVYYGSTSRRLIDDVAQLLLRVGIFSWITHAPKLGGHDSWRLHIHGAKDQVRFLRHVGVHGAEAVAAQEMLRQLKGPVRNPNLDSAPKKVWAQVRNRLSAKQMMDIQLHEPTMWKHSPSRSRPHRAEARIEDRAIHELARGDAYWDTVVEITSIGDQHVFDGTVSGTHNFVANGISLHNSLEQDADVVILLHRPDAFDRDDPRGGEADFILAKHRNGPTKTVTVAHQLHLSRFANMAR
The assay can be described thus: DnaB intein splicing inhibitors, dose response, biochemical, cell-free fluorescence (AID 449749). The class given is functional.

Assay [16] has as its system Streptococcus sp. 'group A'. As to the kind of experiment: Streptococcus pyogenes SK(-)GAS viability under kanamycin – luminescence, BacTiterGlo, confirmation, counter-screen for streptokinase expression inhibitor project, dose response (AID 1900). Type of assay: functional, organism-based. In general terms: Counterscreens check selectivity or assay interference.
The target of assay [17] is Heat shock protein HSP 90-alpha (Homo sapiens, UniProt P07900). The class given is functional, organism-based.
The target of assay [18] is T5, Heat shock factor protein 1 (Mus musculus, UniProt P38532).
T5 sequence (P38532 whole entry): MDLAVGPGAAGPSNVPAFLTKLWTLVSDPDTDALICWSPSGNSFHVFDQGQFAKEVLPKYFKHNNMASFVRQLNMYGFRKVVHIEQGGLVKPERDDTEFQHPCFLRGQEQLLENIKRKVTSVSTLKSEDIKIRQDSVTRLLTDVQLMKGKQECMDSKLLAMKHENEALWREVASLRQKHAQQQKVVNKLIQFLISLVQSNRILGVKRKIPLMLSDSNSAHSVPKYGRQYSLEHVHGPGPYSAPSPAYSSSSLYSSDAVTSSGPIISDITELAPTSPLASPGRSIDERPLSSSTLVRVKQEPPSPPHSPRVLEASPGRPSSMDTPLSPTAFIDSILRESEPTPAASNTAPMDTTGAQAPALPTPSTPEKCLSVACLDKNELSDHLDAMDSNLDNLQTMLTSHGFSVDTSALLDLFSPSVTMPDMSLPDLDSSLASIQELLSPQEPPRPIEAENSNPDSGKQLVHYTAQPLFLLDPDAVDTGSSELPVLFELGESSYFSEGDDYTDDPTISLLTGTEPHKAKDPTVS
The assay can be described thus: enhancement of HSF1-driven luciferase signal – cell-based, NIH3T3, luminescence, dose retest, confirmation (AID 435004).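 Note: stress induced by proteasome inhibitor MG132 added 30 min after compound; luciferase reporter driven by HSF1 response element in NIH3T3 cells; actives raise luminescence as potentiators of the MG132 stress response.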 Type of assay: functional.

The test system of a further assay is Streptococcus. As to the kind of experiment: GAS UMAA2166 growth inhibition – luminescence, BacTiterGlo, counter-screen for streptokinase expression inhibitor project, dose response (AID 1915).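 Note: potency for reduction of bacterial viability or growth.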 Type of assay: functional, organism-based.

Calls of active or inactive are those of the source.

Protein Wnt-3a, sequence (P27467 whole entry): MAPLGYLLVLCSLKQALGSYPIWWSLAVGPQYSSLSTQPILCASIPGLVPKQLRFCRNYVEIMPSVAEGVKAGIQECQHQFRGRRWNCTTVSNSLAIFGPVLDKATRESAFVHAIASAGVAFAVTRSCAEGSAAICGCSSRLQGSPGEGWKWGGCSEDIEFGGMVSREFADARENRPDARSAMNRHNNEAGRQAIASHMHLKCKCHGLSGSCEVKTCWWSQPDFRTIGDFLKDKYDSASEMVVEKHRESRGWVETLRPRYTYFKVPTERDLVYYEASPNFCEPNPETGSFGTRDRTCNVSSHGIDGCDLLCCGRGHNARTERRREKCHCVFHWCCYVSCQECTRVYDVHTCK
Cytochrome P450 3A4, sequence (P08684 whole entry): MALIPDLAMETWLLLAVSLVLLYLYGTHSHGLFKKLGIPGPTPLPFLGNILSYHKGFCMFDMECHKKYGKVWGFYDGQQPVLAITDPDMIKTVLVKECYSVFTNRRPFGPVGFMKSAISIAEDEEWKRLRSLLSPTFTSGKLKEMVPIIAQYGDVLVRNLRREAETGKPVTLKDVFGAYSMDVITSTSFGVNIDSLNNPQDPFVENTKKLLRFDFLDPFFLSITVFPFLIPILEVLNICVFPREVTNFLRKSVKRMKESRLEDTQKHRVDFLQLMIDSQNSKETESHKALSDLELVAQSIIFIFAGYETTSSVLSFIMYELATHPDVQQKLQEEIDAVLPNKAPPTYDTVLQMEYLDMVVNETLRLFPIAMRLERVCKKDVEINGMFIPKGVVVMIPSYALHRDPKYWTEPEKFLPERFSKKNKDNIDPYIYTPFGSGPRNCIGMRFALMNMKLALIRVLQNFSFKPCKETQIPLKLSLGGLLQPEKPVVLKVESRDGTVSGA

Broadly, the CC50 is the concentration that lowers cell viability or growth by half. A word on the AC50: it is the concentration giving half of the maximal activity seen. Turning to `COc1ccc(-c2nn(-c3ccccc3)cc2/C=N/NC(=O)c2ccc(Br)o2)cc1`, the CC50 in assay [1] is 18.8 µM (active). Moreover, on Cytochrome P450 3A4, the AC50 was 15.8 µM (inconclusive). In addition, the IC50 on Protein Wnt-3a was 7.01 µM (active).
Regarding `Cn1c(=O)c2cc(S(=O)(=O)NC(C(=O)Nc3cccc(F)c3)c3ccccc3)ccc2n(C)c1=O` (stereo not drawn), the IC50 in assay [2] was > 100 µM (inactive); in assay [3], 92.8 µM (active); at Prothrombin it was > 100 µM (inactive).
The term EC50 denotes the concentration that produces a half-maximal response. `Cc1cccnc1CN1CCN(C(=O)c2cc(COc3ccc4ncccc4c3)on2)CC1`: the AC50 is 7.57 µM (active) in [4], 3.77 µM (active) in the assay on INS1, 2.1 µM (active) in assay [6] and 2.78 µM (active) in assay [8]. The EC50 in assay [5] and in assay [7] was > 112 µM (not active) each time. Also, the IC50 at Protein Wnt-3a is 1.62 µM (active).
`COc1ccc(/C=N/NC(=O)c2ccc(COc3cccc4cccnc34)cc2)cc1OC`: in the assay on H9c2, the IC50 was > 79 µM (inactive).
The same measure, in the same setting: the same measure for `CC12C=CC(=O)CC1CCC1C2CCC2(C)C(O)C(O)CC12` (stereo not drawn): > 79 µM (inactive).
In the case of `COc1cc(NC(=O)c2cc3c(C)nc4ccccc4c3o2)cc(OC)c1OC`, the IC50 in assay [9] was 62.8 µM (inactive); in the assay on H9c2, > 79 µM (inactive).
`Cc1ccc2c(c1)nc1c3ccccc3nc(-c3ccccc3N)n21`: the IC50 in the assay with H9c2 is > 79 µM (inactive).
`COc1nnc(-c2ccc(N3CCCCC3)c(N)c2)c2ccccc12`: the IC50 at Protein Wnt-3a is 25.8 µM (inactive).
For the molecule `N#Cc1ccccc1NC(=O)CN1C(=O)NC(Cc2c[nH]c3ccccc23)C1=O` (stereo not drawn), the EC50 in assay [10] is > 104 µM (inactive).
Turning to `COc1ccc(-n2nc3c(N4CCC(C(=O)NCc5ccco5)CC4)nnc(C)c3c2C)cc1`, the values for the EC50 in assay [11], in assay [13] and in assay [14] were 20.3 µM (active), > 120 µM (not active) and > 120 µM (not active), respectively. Also, the IC50 in [12] was 61.1 µM (inactive).
As to `CN1CCN(C(c2ccc(Cl)cc2)c2cc(Cl)c3cccnc3c2O)CC1` (stereo not drawn), the EC50 is 2.42 µM (active) on Protein RecA, 1.92 µM (active) in assay [16], > 260 µM (inconclusive) in [18] and 3.8 µM (active) in the assay on Streptococcus. In addition, the AC50 in [15] is > 380 µM (inactive); in [17], 0.77 µM (active). The results for the IC50 (in [2]; in assay [3]; on Prothrombin) were 14.8 µM (active), 56.4 µM (active) and 75.6 µM (active), respectively.
